Test results: US20240245670A1, “DOSING REGIMEN AND PHARMACEUTICAL COMBINATION COMPRISING 3-(1-OXOISOINDOLIN-2-YL)PIPERIDINE-2,6-DIONE DERIVATIVES” (Novartis AG, priority 2018, published 2024)

How the values were obtained:
[1] = In vivo non-clinical PK / high dose PK and toxicology exposure; details: rat; between 3 mg/kg and 300 mg/kg
Procedure: (§1) The in vivo non-clinical PK profile of I-57 was investigated in mouse, rat, dog and cynomolgus monkey using I-57 free base. […] After p.o. administration, the absorption of I-57 was rapid with peak blood concentration (Tmax) occurring between 1 and 4 hours. […] In high dose PK and toxicology studies with I-57 the exposures in mouse, rat and monkey increased with dose.

[2] = In vivo non-clinical PK profile, i.v. and p.o., all species tested (mouse, rat, dog, cynomolgus monkey)
Procedure: as §1

[3] = PK after single oral dose in cynomolgus monkey (FIG. 4, FIG. 5, Table 13); format: in vivo; details: for AUC24 h (unbound) / AUC24 h/Dose (unbound) / Cmax (unbound) / Cmax/Dose (unbound): cynomolgus monkey, unbound exposure, n = 3, mean ± SD
Procedure: FIG. 4 is a graph showing the PK/PD relationship in the cynomolgus monkey after a single oral of 0.01, 0.1 or 1 mg/kg of Compound I-57.
FIG. 5. is a graph showing plasma concentration in the cynomolgus monkey of Compound I-57 and IKZF2 expression (as determined by flow cytometry) in FOXP3+ T cells from PBMCs after a single oral of 0.01, 0.1 or 1 mg/kg of Compound I-57.
The PK/PD relationship of I-57 was examined in cynomolgus monkeys after a single oral dose of 0.01, 0.1 or 1 mg/kg. I-57 plasma concentration and IKZF2 expression (as determined by flow cytometry) in FOXP3+ T cells from PBMCs were determined (FIG. 4 and FIG. 5).

[4] = system: isolated primary human T cells; experiment: In vitro T cell dysfunction/exhaustion assay by sequential TCR stimulation (FIG. 2D); format: cell-based; details: Teff cells; 2.5 nM, 25 nM and 2.5 μM
Excerpt: FIG. 2C is a bar graph showing the suppressive potency of Treg cells expanded in the presence of Compound I-57.
Although the specific transcriptional targets of IKZF2 remain to be defined, IKZF2 binds to and represses transcription from the IL-2 promoter region (Baine 2013). […] Finally, an in vitro assay recapitulating hallmarks of T cell dysfunction/exhaustion, by sequential TCR stimulation of isolated primary human T cells, was used to test the hypothesis that […] would rescue the exhausted phenotype and enhance Teff cell activity. […] In addition to IKZF1, other known cereblon substrates including translation termination factor G1 to S phase transition 1 (GSPT1) are not degraded by I-57 (FIG. 1).

[5] = molecular target: T1, IKZF2 expression in human CD4+FOXP3+ regulatory T cells (Homo sapiens, UniProt Q96SW2+Q9UKS7); experiment: PD in MDA-MB231 xenograft hPBMC AdT model: IKZF2 in Tregs by flow cytometry (FIG. 7); format: in vivo
T1 construct: endogenous in cells; host or cells: adoptively transferred human PBMCs (Tregs, tumor-infiltrating lymphocytes) in NSG mice
T1 sequence (Q9UKS7 whole entry): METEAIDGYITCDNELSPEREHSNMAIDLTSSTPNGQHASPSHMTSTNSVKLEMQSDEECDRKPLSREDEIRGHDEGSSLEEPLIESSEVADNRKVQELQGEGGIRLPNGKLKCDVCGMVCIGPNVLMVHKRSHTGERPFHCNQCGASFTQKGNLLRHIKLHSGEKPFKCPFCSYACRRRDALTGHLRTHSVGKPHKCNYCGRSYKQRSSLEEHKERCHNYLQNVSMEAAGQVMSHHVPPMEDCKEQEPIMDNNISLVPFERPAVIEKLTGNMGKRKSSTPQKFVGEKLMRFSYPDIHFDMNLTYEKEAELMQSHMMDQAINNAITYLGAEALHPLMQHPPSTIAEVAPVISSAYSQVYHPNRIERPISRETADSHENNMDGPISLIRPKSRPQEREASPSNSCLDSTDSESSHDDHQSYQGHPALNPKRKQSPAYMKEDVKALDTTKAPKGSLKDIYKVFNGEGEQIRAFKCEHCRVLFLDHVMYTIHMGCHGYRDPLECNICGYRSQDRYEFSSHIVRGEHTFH
T1 sequence (Q96SW2 whole entry): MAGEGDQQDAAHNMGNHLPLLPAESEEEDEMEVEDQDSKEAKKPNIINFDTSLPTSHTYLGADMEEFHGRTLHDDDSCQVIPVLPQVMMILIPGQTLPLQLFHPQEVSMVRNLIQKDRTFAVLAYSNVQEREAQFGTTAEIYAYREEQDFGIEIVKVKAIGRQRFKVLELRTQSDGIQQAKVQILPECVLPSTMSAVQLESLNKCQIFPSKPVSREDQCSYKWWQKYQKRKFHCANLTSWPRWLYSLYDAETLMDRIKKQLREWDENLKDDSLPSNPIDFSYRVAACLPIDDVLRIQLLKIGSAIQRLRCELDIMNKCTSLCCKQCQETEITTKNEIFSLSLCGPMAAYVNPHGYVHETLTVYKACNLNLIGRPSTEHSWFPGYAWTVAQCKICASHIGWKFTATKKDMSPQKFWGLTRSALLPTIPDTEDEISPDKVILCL
T1 sequence (Q16531 whole entry partner): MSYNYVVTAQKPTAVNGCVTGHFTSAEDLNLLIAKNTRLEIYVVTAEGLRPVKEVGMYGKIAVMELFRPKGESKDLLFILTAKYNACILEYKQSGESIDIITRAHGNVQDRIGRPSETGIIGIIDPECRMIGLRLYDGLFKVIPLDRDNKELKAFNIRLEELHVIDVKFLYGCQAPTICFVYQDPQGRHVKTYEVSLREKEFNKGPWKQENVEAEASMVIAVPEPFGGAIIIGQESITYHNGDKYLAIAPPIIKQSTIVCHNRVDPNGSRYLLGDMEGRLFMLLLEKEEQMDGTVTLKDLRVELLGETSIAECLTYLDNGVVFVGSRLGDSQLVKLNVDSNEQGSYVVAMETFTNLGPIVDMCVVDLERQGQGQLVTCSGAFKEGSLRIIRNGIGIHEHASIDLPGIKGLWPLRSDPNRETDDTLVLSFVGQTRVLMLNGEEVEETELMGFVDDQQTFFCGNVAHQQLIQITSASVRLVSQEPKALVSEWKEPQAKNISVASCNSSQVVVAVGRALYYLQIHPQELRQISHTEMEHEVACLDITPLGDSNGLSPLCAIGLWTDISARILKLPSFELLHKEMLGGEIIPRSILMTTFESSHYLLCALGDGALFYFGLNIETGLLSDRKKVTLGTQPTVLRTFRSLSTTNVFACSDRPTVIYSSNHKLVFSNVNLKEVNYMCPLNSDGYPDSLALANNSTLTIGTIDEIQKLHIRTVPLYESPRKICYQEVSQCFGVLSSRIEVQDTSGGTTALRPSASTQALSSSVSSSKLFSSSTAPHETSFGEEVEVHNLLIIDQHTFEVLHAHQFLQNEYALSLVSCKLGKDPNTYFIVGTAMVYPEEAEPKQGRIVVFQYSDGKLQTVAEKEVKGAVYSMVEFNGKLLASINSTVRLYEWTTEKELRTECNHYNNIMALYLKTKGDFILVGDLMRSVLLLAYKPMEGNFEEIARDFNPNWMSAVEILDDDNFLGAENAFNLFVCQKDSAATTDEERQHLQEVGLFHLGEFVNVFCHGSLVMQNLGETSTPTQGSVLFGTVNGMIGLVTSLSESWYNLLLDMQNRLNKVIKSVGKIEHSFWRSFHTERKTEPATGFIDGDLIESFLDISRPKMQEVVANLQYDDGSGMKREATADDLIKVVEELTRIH
Procedure: FIG. 6 is a pictorial representation of the multi-dose PK/PD study design in the human PBMC adoptive transfer mouse model harboring MDA-MB231 xenografts. Fourteen consecutive daily doses of Compound I-57 was administered at 0.3 mg/kg, 1 mg/kg, 3 mg/kg or 30 mg/kg.
FIG. 7 is a graph showing the change in the IKZF2 expression in human CD4+FOXP3+ regulatory T cells isolated from MDA-MB231 tumor xenografts (Tumor) or blood (Periphery) following 14 daily oral doses of 0.3, 1, 3 and 30 mg/kg Compound I-57 administered to the hPBMC AdT model.
The PK/PD relationship of I-57 was examined in the hPBMC AdT model system. Human PBMCs were adoptively transferred into female NSG mice harboring established MDA-MB231 xenografts (FIG. 6). This model was selected based on the observation that IKZF2 positive Tregs (CD4+FOXP3+) were readily identifiable in peripheral blood and infiltrated in the tumor xenografts.
The impact of I-57 on IKZF2 protein expression in human Tregs in the periphery and infiltrated in MDA-MB231 xenografts was assessed via flow cytometry at multiple time points after the last I-57 dose. […] Maximum effects were generally observed 4-16 h post dose. At a given dose level, the magnitude and duration of IKZF2 reduction in Tregs was generally consistent across tissues (tumor, spleen and blood).
Based on the data from this hPBMC AdT mouse model, unbound I-57 (73% percent plasma binding in the mouse) exposures (AUCinf) of 7, 30, 157 and 3474 ng*h/mL are required to achieve the reduction of IKZF2 positivity (via flow cytometry) in tumor Tregs by 31, 43, 56, and 75%, respectively. The relationship between the magnitude and duration of I-57-mediated IKZF2 degradation and subsequent modulation of therapeutically relevant downstream biology is not yet well understood.

[6] = In vivo non-clinical PK / high dose PK; details: mouse; between 3 mg/kg and 100 mg/kg
Procedure: as §1
The binding to plasma protein of I-57 in vitro was moderate in all species, with an observed difference between rodents (73% in mouse, 76% in rat) and non-rodents (52% in dog and monkey, 54% in human). Blood-to-plasma ratios were in the range of 0.7-1.8 (human 1.1-1.3). […] Based on results with non-radiolabeled I-57 in the dog, a significant amount of unchanged I-57 was renally eliminated (˜20% of dose).

cynomolgus monkeys = experiment: 4-week GLP toxicology study in cynomolgus monkeys; format: in vivo
Procedure: The starting dose of I-57 selected for this study is supported by 4-week GLP toxicology studies performed in cynomolgus monkeys. […] GLP toxicity studies identified 30 mg/kg as the HNSTD in monkey and supported a starting dose up to 100 mg QD in human (BSA scaled HED and using a safety factor of 6). The selected dose of 20 mg is anticipated to result in a significant but sub-maximal IKZF2 degradation in human PBMCs and TILs (50-90%), based on PK/PD modeling of I-57 exposure and IKZF2 degradation in cynomolgus PBMCs. More IKZF2 degradation may be required to change downstream biology. Therefore, 20 mg is considered safe. Escalation from this starting dose will facilitate the determination of the minimal required dose which provides optimal IKZF2 degradation to impact downstream biological activity.

With O=C1CCC(N2Cc3cc(C4CCN(Cc5ccccc5)CC4)ccc3C2=O)C(=O)N1 (centres unmarked) [Compound I-57, 3-(5-(1-benzylpiperidin-4-yl)-1-oxoisoindolin-2-yl)piperidine-2,6-dione] the “increase in AUC with dose” value [1] was “roughly dose proportional”, the “terminal half-life (T1/2)” value ([2]; i.v. administration, all species tested) was “moderate” and the absorption ([2]; p.o. administration) was “rapid”. For the same molecule, the “AUC24 h (unbound)” value ([3]; single oral dose 0.01 mg/kg) was 14.1 ± 4.72 ng·h/mL, the “AUC24 h/Dose (unbound)” value ([3]; single oral dose 0.01 mg/kg) was 1410 ± 472 (ng · h/mL)/(mg/kg) and the “Cmax (unbound)” value ([3]; single oral dose 0.01 mg/kg) was 2.11 ± 0.69 ng/mL. The “Cmax/Dose (unbound)” value ([3]; single oral dose 0.01 mg/kg) was 211 ± 69.1 (ng/mL)/(mg/kg), the “AUC24 h (unbound)” value ([3]; single oral dose 0.1 mg/kg) was 102 ± 13.2 ng·h/mL and the “AUC24 h/Dose (unbound)” value ([3]; single oral dose 0.1 mg/kg) was 1020 ± 136 (ng · h/mL)/(mg/kg). For the same molecule, the “Cmax (unbound)” value ([3]; single oral dose 0.1 mg/kg) was 13.4 ± 2.77 ng/mL, the “Cmax/Dose (unbound)” value ([3]; single oral dose 0.1 mg/kg) was 134 ± 27.7 (ng/mL)/(mg/kg) and the “AUC24 h (unbound)” value ([3]; single oral dose 1 mg/kg) was 610 ± 236 ng·h/mL. The “AUC24 h/Dose (unbound)” value ([3]; single oral dose 1 mg/kg) was 610 ± 236 (ng · h/mL)/(mg/kg), the “Cmax (unbound)” value ([3]; single oral dose 1 mg/kg) was 102 ± 45.3 ng/mL and the “Cmax/Dose (unbound)” value ([3]; single oral dose 1 mg/kg) was 102 ± 45.3 (ng/mL)/(mg/kg). For the same molecule, the “dose proportionality of observed exposures” value ([3]; single oral dose of 0.01, 0.1 or 1 mg/kg) was “slightly less than dose proportional”, the “IFNγ production by IKZF2 positive cells” value [4] was “concomitant increase” and the “time of maximum effects” value ([5]; post dose (after last dose)) was 4 to 16 h. The “IKZF2 degradation (reduction of percentage of IKZF2 positive Tregs)” value ([5]; tumor and peripheral blood, 14 daily oral doses of 0.3, 1, 3 and 30 mg/kg) was “robust dose and exposure-dependent IKZF2 degradation”, the “reduction of IKZF2 positivity in tumor Tregs (flow cytometry)” value (shortened to “reduction of IKZF2 positivity”) ([5]; unbound AUCinf 7 ng*h/mL) was 31% and the “reduction of IKZF2 positivity” value ([5]; unbound AUCinf 30 ng*h/mL) was 43%. For the same molecule, the “reduction of IKZF2 positivity” value ([5]; unbound AUCinf 157 ng*h/mL) was 56%, the “reduction of IKZF2 positivity” value ([5]; unbound AUCinf 3474 ng*h/mL) was 75% and the “increase in AUC with dose” value [6] was “roughly dose proportional”. For the same molecule, the “supported starting dose in human (BSA scaled HED, safety factor of 6)” value (cynomolgus monkeys; derived from monkey HNSTD) was “up to 100 mg QD” and the HNSTD (cynomolgus monkeys; monkey, 4-week GLP toxicity studies) was 30 mg/kg.
